Like-named read-outs stand apart in the source and are kept apart here.
Target: BTK (Homo sapiens (Human), UniProt Q06187)
Experiment: Btk in vitro inhibitory activity (one of Method A TR-FRET, Method B electrophoretic mobility shift, Method C radiometric filter binding)
Type: biochemical
[1] = determined using one of the methods of Example 355a, 355b and 355c, read-out: BTK IC50

Sequence of BTK (Q06187 whole entry): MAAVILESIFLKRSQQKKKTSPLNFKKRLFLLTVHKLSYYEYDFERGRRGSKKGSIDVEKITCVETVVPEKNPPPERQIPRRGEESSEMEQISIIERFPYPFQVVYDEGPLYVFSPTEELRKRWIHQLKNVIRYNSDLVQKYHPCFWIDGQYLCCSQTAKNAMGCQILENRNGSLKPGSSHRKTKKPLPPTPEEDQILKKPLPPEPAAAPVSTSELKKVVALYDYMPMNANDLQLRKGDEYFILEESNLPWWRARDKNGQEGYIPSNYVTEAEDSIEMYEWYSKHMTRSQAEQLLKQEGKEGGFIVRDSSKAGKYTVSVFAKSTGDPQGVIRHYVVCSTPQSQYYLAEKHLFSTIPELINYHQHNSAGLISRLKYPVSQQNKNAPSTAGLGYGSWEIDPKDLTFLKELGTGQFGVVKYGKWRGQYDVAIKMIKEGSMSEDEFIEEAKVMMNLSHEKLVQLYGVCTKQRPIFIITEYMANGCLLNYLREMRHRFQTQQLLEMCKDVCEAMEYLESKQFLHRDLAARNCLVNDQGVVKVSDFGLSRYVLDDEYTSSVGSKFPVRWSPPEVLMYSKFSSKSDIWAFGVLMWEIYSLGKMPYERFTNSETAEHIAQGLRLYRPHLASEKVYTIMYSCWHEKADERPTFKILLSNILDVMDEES

Compound	IC50 [1] [µM]	IC50 (read-out: Btk (IC50)) [µM]	IC50 [µM]	IC50 (Btk (IC50)) [µM]
NC(=O)c1nnc(N2CCC[C@@H](NC(=O)N3CCCCC3)C2)nc1Nc1ccc(C2CCN(C3CCCC3)CC2)cc1 [Example 336, (R)-5-(4-(1-cyclopentylpiperidin-4-yl)phenylamino)-3-(3-(piperidine-1-carboxamido)piperidin-1-yl)-1,2,4-triazine-6-carboxamide]	< 0.01	< 0.01		
CC(C)(C)c1ccc(C(=O)N[C@@H]2CCCN(c3nnc(C(N)=O)c(Nc4ccc(S(C)(=O)=O)cc4)n3)C2)cc1 [Example 55, (R)-3-(3-(4-tert-butylbenzamido)piperidin-1-yl)-5-(4-(methylsulfonyl)phenylamino)-1,2,4-triazine-6-carboxamide]	< 0.01		0.01 to 0.1	
CN(C)C(=O)N[C@@H]1CCCN(c2cnc(C(N)=O)c(Nc3ccc(S(C)(=O)=O)cc3)n2)C1 [Example 151, (R)-5-(3-(3,3-dimethylureido)piperidin-1-yl)-3-(4-(methylsulfonyl)phenylamino)pyrazine-2-carboxamide]	< 0.01	< 0.01		
N#CCC(=O)N1CCC(c2ccc(Nc3nc(N4CCC[C@@H](NC(=O)N5CCCCC5)C4)nnc3C(N)=O)cc2)CC1 [Example 341, (R)-5-(4-(1-(2-cyanoacetyl)piperidin-4-yl)phenylamino)-3-(3-(piperidine-1-carboxamido)piperidin-1-yl)-1,2,4-triazine-6-carboxamide]	< 0.01		0.01 to 0.1	
CN(C)C(=O)N[C@@H]1CCCN(c2cnc(C(N)=O)c(Nc3ccc(C4CCN(c5ccccn5)CC4)cc3)n2)C1 [Example 174, (R)-5-(3-(3,3-dimethylureido)piperidin-1-yl)-3-(4-(1-(pyridin-2-yl)piperidin-4-yl)phenylamino)pyrazine-2-carboxamide]	0.01 to 0.1	0.01 to 0.1		
CN(C)C(=O)N[C@@H]1CCCN(c2cnc(C(N)=O)c(Nc3ccc(C4CCNCC4)cc3Cl)n2)C1 [Example 213, (R)-3-(2-chloro-4-(piperidin-4-yl)phenylamino)-5-(3-(3,3-dimethylureido)piperidin-1-yl)pyrazine-2-carboxamide]	0.01 to 0.1			0.01 to 0.1
CN1CCC(c2ccc(Nc3nc(N4CCC[C@@H](NC(=O)c5ccc(C(C)(C)C)cc5)C4)cnc3C(N)=O)cc2)CC1 [Example 130, (R)-5-(3-(4-tert-butylbenzamido)piperidin-1-yl)-3-(4-(1-methylpiperidin-4-yl)phenylamino)pyrazine-2-carboxamide]	< 0.01	< 0.01		
C[C@@H]1[C@H](N)CCCN1c1cnc(C(N)=O)c(Nc2ccc(C3CCN(C4CCCC4)CC3)cc2)n1 [Example 230, 5-((2R,3R)-3-amino-2-methylpiperidin-1-yl)-3-(4-(1-cyclopentylpiperidin-4-yl)phenylamino)pyrazine-2-carboxamide]	0.01 to 0.1			0.01 to 0.1
CN(C)C(=O)N[C@@H]1CCCN(c2cnc(C(N)=O)c(Nc3ccccc3)n2)C1 [Example 180, (R)-5-(3-(3,3-dimethylureido)piperidin-1-yl)-3-(phenylamino)pyrazine-2-carboxamide]	0.1 to 1			
NC(=O)c1nnc(N2CCC[C@@H](N3CCCC3=O)C2)nc1Nc1ccc(C(=O)N2CCOCC2)cc1 [Example 44, (R)-5-(4-(morpholine-4-carbonyl)phenylamino)-3-(3-(2-oxopyrrolidin-1-yl)piperidin-1-yl)-1,2,4-triazine-6-carboxamide]	0.01 to 0.1			
CC#CC(=O)N[C@@H]1CCCN(c2nnc(C(N)=O)c(Nc3ccc(C(=O)N4CCOCC4)cc3)n2)C1 [Example 23, (R)-3-(3-but-2-ynamidopiperidin-1-yl)-5-(4-(morpholine-4-carbonyl)phenylamino)-1,2,4-triazine-6-carboxamide]	0.01 to 0.1			
CN1CCN([C@@H]2CCCN(c3cnc(C(N)=O)c(Nc4ccc(C5(C(N)=O)CCN(C6CCCC6)CC5)cc4)n3)C2)C1=O [Example 272, (R)-3-(4-(4-carbamoyl-1-cyclopentylpiperidin-4-yl)phenylamino)-5-(3-(3-methyl-2-oxoimidazolidin-1-yl)piperidin-1-yl)pyrazine-2-carboxamide]		< 0.01		
CN1CCN([C@@H]2CCCN(c3cnc(C(N)=O)c(Nc4ccc(C5(C)CCN(C6CC6)CC5)cc4)n3)C2)C1=O [Example 263, (R)-3-(4-(1-cyclopropyl-4-methylpiperidin-4-yl)phenylamino)-5-(3-(3-methyl-2-oxoimidazolidin-1-yl)piperidin-1-yl)pyrazine-2-carboxamide]		< 0.01		
Cc1ccc(Nc2nc(N3CCC[C@@H](NC(=O)c4ccc(C(C)(C)C)cc4)C3)nnc2C(N)=O)cc1 [Example 53, (R)-3-(3-(4-tert-butylbenzamido)piperidin-1-yl)-5-(p-tolylamino)-1,2,4-triazine-6-carboxamide]	1 to 10			
CC#CC(=O)N1CCC[C@@H](N(C)c2cnc(C(N)=O)c(Nc3ccc(C(=O)N4CCOCC4)cc3)n2)C1 [Example 157, (R)-5-((1-but-2-ynoylpiperidin-3-yl)(methyl)amino)-3-(4-(morpholine-4-carbonyl)phenylamino)pyrazine-2-carboxamide]	< 0.01	< 0.01		
CCC(=O)N1CCC(c2ccc(Nc3nc(N4CCC[C@@H](NC(=O)N5CCCCC5)C4)cnc3C(N)=O)cc2)CC1 [Example 149, (R)-5-(3-(piperidine-1-carboxamido)piperidin-1-yl)-3-(4-(1-propionylpiperidin-4-yl)phenylamino)pyrazine-2-carboxamide]	0.01 to 0.1			0.01 to 0.1
CC(C)OC(=O)NN(C(=O)OC(C)C)[C@@H]1CCCN(c2nnc(C(N)=O)c(Nc3ccc(C(=O)N4CCOCC4)cc3)n2)C1 [Example 46, (R)-diisopropyl 1-(1-(6-carbamoyl-5-(4-(morpholine-4-carbonyl)phenylamino)-1,2,4-triazin-3-yl)piperidin-3-yl)hydrazine-1,2-dicarboxylate]	0.01 to 0.1			
Cc1cc(Nc2nc(N[C@@H]3CCCCN(C(=O)N(C)C)C3)cnc2C(N)=O)sn1 [Example 348, (R)-3-(5-carbamoyl-6-(3-methylisothiazol-5-ylamino)pyrazin-2-ylamino)-N,N-dimethylazepane-1-carboxamide]	0.01 to 0.1			
Cc1cc(Nc2nc(N3CCC[C@@H](NC(=O)N(C)C)C3)cnc2C(N)=O)sn1 [Example 187, (R)-5-(3-(3,3-dimethylureido)piperidin-1-yl)-3-(3-methylisothiazol-5-ylamino)pyrazine-2-carboxamide]	0.01 to 0.1			0.01 to 0.1
CCC(=O)N1CCC(c2ccc(Nc3nc(N4CCC[C@@H](NC(=O)N(C)C)C4)cnc3C(N)=O)cc2)CC1 [Example 152, (R)-5-(3-(3,3-dimethylureido)piperidin-1-yl)-3-(4-(1-propionylpiperidin-4-yl)phenylamino)pyrazine-2-carboxamide]	< 0.01	< 0.01		
CCS(=O)(=O)N[C@@H]1CCCN(c2cnc(C(N)=O)c(Nc3ccc(C4CCN(C5CCCC5)CC4)cc3)n2)C1 [Example 301, (R)-3-(4-(1-cyclopentylpiperidin-4-yl)phenylamino)-5-(3-(ethylsulfonamido)piperidin-1-yl)pyrazine-2-carboxamide]	0.01 to 0.1			
CN(C)C(=O)N[C@@H]1CCCN(c2cnc(C(N)=O)c(Nc3ccc([N+](=O)[O-])cc3)n2)C1 [Example 192, (R)-5-(3-(3,3-dimethylureido)piperidin-1-yl)-3-(4-nitrophenylamino)pyrazine-2-carboxamide]	0.01 to 0.1			0.01 to 0.1
